Results from US20240041870A1, “METHODS OF TREATING SYSTEMIC LUPUS ERYTHEMATOSUS” (AbbVie Inc., priority 2022, published 2024).

Tested on: anti-dsDNA autoantibodies, complement C3 and C4, IgG, IgM, circulating B cells
Assay: Biomarker analysis in Study M19-130
Format: in vivo, human
Excerpt: Biospecimens (whole blood, peripheral blood mononuclear cells [PBMCs], plasma, and serum) were collected at specified time points throughout the study to evaluate known and/or novel disease-related or drug-related biomarkers. Types of biomarkers may have included nucleic acids, proteins, lipids, RNA, DNA, and/or metabolites. The objective of this research was to analyze samples for biomarkers that would help to understand SLE, related conditions, and response to treatment with upadacitinib or similar compounds.
Increased circulating memory, naïve, and total B cells were also observed.
The Week 48 predefined biomarker analyses confirmed the trends observed at Week 24.

## CC[C@@H]1CN(C(=O)NCC(F)(F)F)C[C@@H]1c1cnc2cnc3[nH]ccc3n12 [Upadacitinib, (3S,4R)-3-ethyl-4-(3H-imidazo[1,2-a]pyrrolo[2,3-e]pyrazin-8-yl)-N-(2,2,2-trifluoroethyl)pyrrolidine-1-carboxamide]
30 mg QD, Week 48 analysis
  anti-dsDNA autoantibodies: meaningful decreases
  complement C3 level: early reduction (a known effect of JAK inhibitors) followed by a progressive normalization
  complement C4 level: early reduction (a known effect of JAK inhibitors) followed by a progressive normalization
30 mg, Week 24 analysis
  circulating memory B cells: Increased
  circulating naïve B cells: Increased
  circulating total B cells: Increased
  level of C3 complement compared to Baseline: significant decrease
  level of C4 complement compared to Baseline: significant decrease
  level of IgG: significant decreases
  level of IgM compared to Baseline: significant decrease
  level of anti-dsDNA autoantibodies: significant decreases
